Measured values from US8530516B2, “Promoting cycling of ApoE4 isoform” (Board of Regents, The University of Texas System, priority 2009, dated 2013).

Columns and labels:
[1] = target: T1, NHE-2 isoform (Homo sapiens, UniProt Q9UBY0); details: cited from earlier work
T1 sequence (Q9UBY0 1-812): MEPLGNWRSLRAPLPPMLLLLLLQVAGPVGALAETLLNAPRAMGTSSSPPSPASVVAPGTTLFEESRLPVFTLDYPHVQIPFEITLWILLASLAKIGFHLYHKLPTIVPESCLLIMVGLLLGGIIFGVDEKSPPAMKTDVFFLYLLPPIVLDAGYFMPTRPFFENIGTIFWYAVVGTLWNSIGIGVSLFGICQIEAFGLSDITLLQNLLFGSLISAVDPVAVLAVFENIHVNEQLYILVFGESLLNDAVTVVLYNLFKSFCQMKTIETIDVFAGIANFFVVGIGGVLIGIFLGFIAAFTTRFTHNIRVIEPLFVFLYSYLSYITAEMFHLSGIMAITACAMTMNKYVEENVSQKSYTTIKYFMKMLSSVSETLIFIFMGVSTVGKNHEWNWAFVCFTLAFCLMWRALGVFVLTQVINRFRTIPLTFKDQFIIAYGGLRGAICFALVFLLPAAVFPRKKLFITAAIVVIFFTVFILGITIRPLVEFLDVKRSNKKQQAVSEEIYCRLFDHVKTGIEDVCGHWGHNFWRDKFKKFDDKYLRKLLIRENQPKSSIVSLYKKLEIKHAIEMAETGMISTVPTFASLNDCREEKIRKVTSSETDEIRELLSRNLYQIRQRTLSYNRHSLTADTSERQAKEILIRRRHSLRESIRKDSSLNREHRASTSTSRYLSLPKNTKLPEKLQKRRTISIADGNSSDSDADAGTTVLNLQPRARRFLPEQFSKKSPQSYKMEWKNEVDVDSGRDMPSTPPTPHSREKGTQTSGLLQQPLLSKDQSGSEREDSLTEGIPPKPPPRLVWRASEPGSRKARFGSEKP

[2] = target: T2, NHE5 (Homo sapiens, UniProt Q14940); details: cited from earlier work
T2 sequence (Q14940 1-896): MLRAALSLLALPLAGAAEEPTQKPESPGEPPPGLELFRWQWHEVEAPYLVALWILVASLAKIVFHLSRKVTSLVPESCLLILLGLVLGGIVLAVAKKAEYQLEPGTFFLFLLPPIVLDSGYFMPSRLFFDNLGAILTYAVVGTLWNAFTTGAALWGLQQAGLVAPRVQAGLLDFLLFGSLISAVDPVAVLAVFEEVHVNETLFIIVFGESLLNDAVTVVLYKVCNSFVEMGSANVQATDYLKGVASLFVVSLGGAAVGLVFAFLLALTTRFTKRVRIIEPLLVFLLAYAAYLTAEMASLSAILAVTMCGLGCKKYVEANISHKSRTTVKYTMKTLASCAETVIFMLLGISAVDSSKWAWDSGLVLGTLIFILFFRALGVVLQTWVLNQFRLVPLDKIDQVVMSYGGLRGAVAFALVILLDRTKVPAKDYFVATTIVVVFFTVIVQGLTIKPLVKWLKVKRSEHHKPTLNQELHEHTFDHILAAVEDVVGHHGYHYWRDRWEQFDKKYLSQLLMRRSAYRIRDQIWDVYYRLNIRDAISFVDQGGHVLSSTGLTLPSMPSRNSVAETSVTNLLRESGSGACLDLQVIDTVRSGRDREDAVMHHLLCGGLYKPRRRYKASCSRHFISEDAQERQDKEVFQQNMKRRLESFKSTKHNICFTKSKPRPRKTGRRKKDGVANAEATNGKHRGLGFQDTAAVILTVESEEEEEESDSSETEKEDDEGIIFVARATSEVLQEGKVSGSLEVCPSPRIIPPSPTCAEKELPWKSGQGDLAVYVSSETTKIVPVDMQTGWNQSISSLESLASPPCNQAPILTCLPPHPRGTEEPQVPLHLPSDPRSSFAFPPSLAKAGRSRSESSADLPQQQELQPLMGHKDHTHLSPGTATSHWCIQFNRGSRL

[3] = target: NHE-3 (Homo sapiens, UniProt P48764); details: cited from earlier work
Sequence of NHE-3 (P48764 26-834, species assumed): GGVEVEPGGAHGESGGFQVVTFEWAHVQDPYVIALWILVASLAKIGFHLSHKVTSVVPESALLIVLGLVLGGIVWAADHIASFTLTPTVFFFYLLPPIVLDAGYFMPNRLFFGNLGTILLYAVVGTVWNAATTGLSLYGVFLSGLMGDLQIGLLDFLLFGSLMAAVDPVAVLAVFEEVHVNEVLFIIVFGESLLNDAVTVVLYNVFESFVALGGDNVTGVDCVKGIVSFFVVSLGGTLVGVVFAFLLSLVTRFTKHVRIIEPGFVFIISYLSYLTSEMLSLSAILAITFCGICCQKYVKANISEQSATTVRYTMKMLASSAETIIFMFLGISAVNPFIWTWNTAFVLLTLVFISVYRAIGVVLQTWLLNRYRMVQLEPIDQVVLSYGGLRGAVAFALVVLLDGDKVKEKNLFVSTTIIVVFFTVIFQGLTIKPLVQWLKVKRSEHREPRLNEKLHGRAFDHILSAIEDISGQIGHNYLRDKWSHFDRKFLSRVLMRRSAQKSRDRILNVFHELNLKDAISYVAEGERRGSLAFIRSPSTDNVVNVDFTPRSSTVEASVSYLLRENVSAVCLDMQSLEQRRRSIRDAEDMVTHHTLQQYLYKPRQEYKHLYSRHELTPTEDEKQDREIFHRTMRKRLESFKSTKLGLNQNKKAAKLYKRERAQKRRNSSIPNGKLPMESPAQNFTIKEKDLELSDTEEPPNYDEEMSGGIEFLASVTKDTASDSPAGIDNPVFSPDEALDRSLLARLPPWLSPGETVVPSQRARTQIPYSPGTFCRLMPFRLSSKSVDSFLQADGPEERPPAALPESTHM

[4] = system: ApoE receptors (Apoer2); test: recycling of ApoE receptors in the presence of ApoE4 / ApoE3; type: cell-based

SMILES: CS(=O)(=O)O.CS(=O)(=O)c1cc(C(=O)N=C(N)N)ccc1N1CCCCC1 [HOE 694]
- NHE-2 isoform selectivity [1]: relatively selective

SMILES: CN1Cc2c(Cl)cc(Cl)cc2C(c2ccc(S(=O)(=O)N=C(N)N)cc2)C1 (stereo not shown) [N-diaminomethylene-4-(6,8-dichloro-2-methyl-1,2,3,4-tetrahydroisoquinolin-4-yl)benzenesulfonamide]
- NHE5 selectivity [2]: NHE5 selective

SMILES: CC(=Cc1cc(C)ccc1C=C(C)C(=O)NC(=N)N)C(=O)N=C(C)C.Cl.Cl [S3226, 3-[2-(3-guanidino-2-methyl-3-oxo-propenyl)-5-methyl-phenyl]-N-isopropylidene-2-methyl-acrylamide dihydro-chloride]
- NHE-3 potency and specificity [3]: relatively potent and specific

SMILES: COc1ccc2c3c([nH]c2c1)C(C)=NCC3 [hamaline]
- NHE5 selectivity [2]: NHE5 selective

SMILES: CC(C)NCC(O)c1ccc(O)c(O)c1 (stereo not shown) [isoproterenol]
- ApoE receptor recycling ([4]; activation of beta-adrenergic receptors, in the presence or absence of IBMX): restores normal ApoE receptor recycling

SMILES: COc1ccc(C2CNC(=O)C2)cc1OC1CCCC1 (stereo not shown) [rolipram]
- effect on altering the recycling properties of Apoer2 ([4]; in the presence of ApoE3): negligible effect
- recycling deficit induced by ApoE4 ([4]; in the presence of ApoE4): completely normalizes
